Experimental findings from patent publication US20250177469A1, “SANGUISORBA OFFICINALIS LINNE EXTRACT COMPOSITION INHIBITING 3CL PROTEASE AND RDRP ACTIVITY OF SARS-COV-2” (QGENETICS CO., LTD., priority 2021, published 2025) are described below.

Molecules are shown by their SMILES.

The assay relates to SARS-CoV-2. Briefly: CPE inhibition of SARS-CoV-2 in VERO-E6 cells. It is filed as cell-based. As to conditions: 200 TCID50, 3 days, average of three repeats, FIG. 4.

Consider `CC(C)C[C@H](NC(=O)OCc1ccccc1)C(=O)N[C@@H](C[C@@H]1CCNC1=O)C(O)S(=O)(=O)[O-].[Na+]` (some centres unmarked) [GC376], for which the “average CPE inhibition value” is 3.125 µg/mL.
Then `CCC(CC)COC(=O)[C@H](C)N[P@](=O)(OC[C@H]1O[C@@](C#N)(c2ccc3c(N)ncnn23)[C@H](O)[C@@H]1O)Oc1ccccc1` [remdesivir], with 8.333 µg/mL.
